Reference: ChEMBL document CHEMBL4270519, “Synthesis and biological evaluation of β2-adrenoceptor agonists bearing the 2-amino-2-phenylethanol scaffold” (Eur J Med Chem, 2018)

Legend:
[1] = molecular target: Beta-1 adrenergic receptor (Homo sapiens, UniProt P08588); assay: Agonist activity at human beta1 adrenergic receptor expressed in HEK293 cells assessed as increase in cAMP accumulation after 60 mins by HTRF assay; format: functional, cell-based
[2] = molecular target: T1, Beta-2 adrenergic receptor (Homo sapiens, UniProt P07550); assay: Agonist activity at human beta2 adrenergic receptor expressed in HEK293 cells assessed as increase in cAMP accumulation after 60 mins by HTRF assay; format: functional, cell-based
Target sequence in this assay (P07550 whole entry): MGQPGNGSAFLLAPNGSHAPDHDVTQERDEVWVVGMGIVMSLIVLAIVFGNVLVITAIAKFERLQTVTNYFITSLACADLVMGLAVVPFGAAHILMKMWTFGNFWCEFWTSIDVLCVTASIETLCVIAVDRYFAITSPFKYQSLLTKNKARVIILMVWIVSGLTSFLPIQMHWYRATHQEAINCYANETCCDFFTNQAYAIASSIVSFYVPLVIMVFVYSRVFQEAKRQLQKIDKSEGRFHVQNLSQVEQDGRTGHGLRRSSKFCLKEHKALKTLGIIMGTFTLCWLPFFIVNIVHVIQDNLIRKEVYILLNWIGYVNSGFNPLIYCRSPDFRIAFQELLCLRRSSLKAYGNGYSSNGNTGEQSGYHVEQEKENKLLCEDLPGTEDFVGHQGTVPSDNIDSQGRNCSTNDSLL

Homo sapiens = species: Homo sapiens; assay: Selectivity ratio of pEC50 for human beta2 adrenergic receptor expressed in HEK293 cells to pEC50 for human beta1 adrenergic receptor expressed in HEK293 cells; format: cell-based
[3] = molecular target: Beta-3 adrenergic receptor (Homo sapiens, UniProt P13945); assay: Agonist activity at human beta3 adrenergic receptor expressed in HEK293 cells assessed as increase in cAMP accumulation after 60 mins by HTRF assay; format: functional, cell-based
[4] = molecular target: T1, Beta-2 adrenergic receptor; assay: Intrinsic activity at human beta2 adrenergic receptor in HEK293 cells assessed as increase in cAMP accumulation after 60 mins by HTRF assay relative to isoprenaline; format: functional, cell-based
Target sequence in this assay (P07550 whole entry, looked up): as the sequence (P07550 whole entry) above

Smooth muscle of trachea [5] = assay: Intrinsic activity at Dunkin-Hartley guinea pig tracheal smooth muscle ring assessed as reduction in histamine-induced muscle contractions by measuring muscle tone relative to isoprenaline; format: functional, Cavia porcellus
Smooth muscle of trachea [6] = assay: Reduction in histamine-induced muscle contractions in Dunkin-Hartley guinea pig tracheal smooth muscle ring by measuring muscle tone relative to control; format: functional; settings: Cavia porcellus
Smooth muscle of trachea [7] = assay: Reduction in histamine-induced muscle contractions in Dunkin-Hartley guinea pig tracheal smooth muscle ring by measuring muscle tone; format: functional, Cavia porcellus
[8] = Apparent permeability from apical to basolateral side in human Caco2 cells at 2 uM after 2 hrs by LC/MS/MS analysis; format: ADME, cell-based; settings: Caco-2
[9] = Intrinsic clearance in human liver microsomes at 10 uM after 10 mins in presence of NADPH by LC/MS/MS analysis; format: ADME, microsome; settings: read-out: CLH
[10] = Apparent permeability from basolateral to apical side in human Caco2 cells at 2 uM after 2 hrs by LC/MS/MS analysis; format: ADME, cell-based; settings: Caco-2
[11] = Half life in human liver microsomes at 10 uM by LC/MS/MS analysis; format: ADME, microsome

Sequence of Beta-1 adrenergic receptor (P08588 whole entry): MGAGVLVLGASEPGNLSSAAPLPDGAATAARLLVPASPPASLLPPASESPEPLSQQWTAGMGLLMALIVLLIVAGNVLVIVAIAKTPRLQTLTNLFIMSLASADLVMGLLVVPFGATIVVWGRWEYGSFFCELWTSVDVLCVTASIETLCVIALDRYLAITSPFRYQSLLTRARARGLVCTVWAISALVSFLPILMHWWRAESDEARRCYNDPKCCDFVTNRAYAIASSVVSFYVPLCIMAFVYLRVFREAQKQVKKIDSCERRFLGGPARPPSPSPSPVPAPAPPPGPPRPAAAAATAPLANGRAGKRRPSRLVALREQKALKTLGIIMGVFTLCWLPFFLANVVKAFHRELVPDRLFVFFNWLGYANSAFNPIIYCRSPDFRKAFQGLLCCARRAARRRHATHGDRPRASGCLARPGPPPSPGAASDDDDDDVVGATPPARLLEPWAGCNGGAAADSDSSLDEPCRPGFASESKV
Sequence of Beta-3 adrenergic receptor (P13945 whole entry): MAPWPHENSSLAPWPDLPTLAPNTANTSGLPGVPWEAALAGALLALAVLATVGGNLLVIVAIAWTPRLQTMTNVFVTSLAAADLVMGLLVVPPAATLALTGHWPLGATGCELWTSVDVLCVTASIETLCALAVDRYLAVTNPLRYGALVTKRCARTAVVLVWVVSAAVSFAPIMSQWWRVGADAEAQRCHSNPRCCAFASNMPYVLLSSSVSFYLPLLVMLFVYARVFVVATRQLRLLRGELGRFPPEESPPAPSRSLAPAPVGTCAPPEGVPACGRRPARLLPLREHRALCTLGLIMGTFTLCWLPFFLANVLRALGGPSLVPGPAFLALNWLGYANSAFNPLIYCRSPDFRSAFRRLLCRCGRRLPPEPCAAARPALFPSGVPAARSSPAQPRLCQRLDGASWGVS

Structure (SMILES)	EC50 [1] [nM]	EC50 ([2]; read-out: pEC50 (converted)) [nM]	Ratio (Homo sapiens)	other results
COc1ccc(CCNC(CO)c2ccc(O)c3[nH]c(=O)ccc23)cc1 (stereo not drawn)	> 10000	20	> 2.71	–
O=c1ccc2c([C@H](CO)NCCc3ccc(O)cc3)ccc(O)c2[nH]1	–	–	–	EC50 ([2]; read-out: EC50): 328 nM
Nc1ccc(CCNC(CO)c2ccc(O)c3[nH]c(=O)ccc23)cc1 (stereo not drawn)	–	79.4	–	–
CCCCC(=O)Nc1ccc(CCNC(CO)c2ccc(O)c3[nH]c(=O)ccc23)cc1 (stereo not drawn)	–	316	–	–
CCc1cc2c(cc1CC)CC(NC(CO)c1ccc(O)c3[nH]c(=O)ccc13)C2 (stereo not drawn)	–	316	–	–
O=c1ccc2c(C(CO)NCCCCCCOCCCCc3ccccc3)ccc(O)c2[nH]1 (stereo not drawn)	> 10000	5.01	> 3.31	–
O=c1ccc2c(C(CO)NCCCCOCCCCc3ccccc3)ccc(O)c2[nH]1 (stereo not drawn)	–	251	–	–
O=c1ccc2c(C(CO)NCCc3ccc(O)cc3)ccc(O)c2[nH]1 (stereo not drawn)	> 10000	3.16	> 3.5	EC50 [3]: > 10000 nM; Intrinsic activity (Smooth muscle of trachea [5]): 98%; Emax (Smooth muscle of trachea [6]): 250%; pD2 (Smooth muscle of trachea [7]): 7.98; Intrinsic activity [4]: 46.3%
CC(C)C(=O)Nc1ccc(CCNC(CO)c2ccc(O)c3[nH]c(=O)ccc23)cc1 (stereo not drawn)	–	50.1	–	–
COc1cccc(CCNC(CO)c2ccc(O)c3[nH]c(=O)ccc23)c1 (stereo not drawn)	631	2	2.62	Intrinsic activity [4]: 52.5%
O=c1ccc2c([C@@H](CO)NCCc3ccc(O)cc3)ccc(O)c2[nH]1	–	–	–	Papp A→B at 2 h, 2 µM [8]: 0.43 ×10⁻⁶ cm/s; EC50 ([2]; read-out: EC50): 1.26 nM; CLint scaled at 10 µM [9]: 11.5 mL/min/kg; Papp B→A at 2 h, 2 µM [10]: 0.74 ×10⁻⁶ cm/s; half-life at 10 µM [11]: 1.81 h
O=C(Cc1ccccc1)Nc1ccc(CCNC(CO)c2ccc(O)c3[nH]c(=O)ccc23)cc1 (stereo not drawn)	–	3.98	–	–
CC(C)NCC(O)c1ccc(O)c(O)c1 (stereo not drawn) [ISOPROTERENOL]	–	–	–	Emax (Smooth muscle of trachea [6]): 254%; CLint scaled at 10 µM [9]: 112 mL/min/kg; half-life at 10 µM [11]: 0.205 h
O=c1ccc2c(C(CO)NCC(c3ccccc3)c3ccccc3)ccc(O)c2[nH]1 (stereo not drawn)	–	631	–	–
CC(C)(Cc1ccccc1)NC(CO)c1ccc(O)c2[nH]c(=O)ccc12 (stereo not drawn)	> 10000	50.1	> 2.28	–
CC(C)CC(=O)Nc1ccc(CCNC(CO)c2ccc(O)c3[nH]c(=O)ccc23)cc1 (stereo not drawn)	–	631	–	–
O=C(Nc1ccc(CCNC(CO)c2ccc(O)c3[nH]c(=O)ccc23)cc1)c1ccccc1 (stereo not drawn)	–	50.1	–	–

More lines, main results first:

EC50 [1] [nM]	EC50 ([2]; read-out: pEC50 (converted)) [nM]	Structure (SMILES)	Ratio (Homo sapiens)	other results
–	794	O=c1ccc2c(C(CO)NCCc3cccc(O)c3)ccc(O)c2[nH]1 (stereo not drawn)	–	–
832	10	O=c1ccc2c(C(CO)NCCCc3ccccc3)ccc(O)c2[nH]1 (stereo not drawn)	1.89	EC50 [3]: > 10000 nM; Intrinsic activity [4]: 55.8%
3160	2.51	O=c1ccc2c(C(CO)NCCc3cccc(Cl)c3)ccc(O)c2[nH]1 (stereo not drawn)	3.05	–
> 10000	5.01	COc1ccccc1CCNC(CO)c1ccc(O)c2[nH]c(=O)ccc12 (stereo not drawn)	> 3.3	EC50 [3]: > 10000 nM; Intrinsic activity (Smooth muscle of trachea [5]): 44%; Emax (Smooth muscle of trachea [6]): 111%; pD2 (Smooth muscle of trachea [7]): 6.03; Intrinsic activity [4]: 48.6%
–	316	O=c1ccc2c(C(CO)NCCc3c[nH]c4ccccc34)ccc(O)c2[nH]1 (stereo not drawn)	–	–
> 10000	12.6	O=c1ccc2c(C(CO)NCCCCc3ccccc3)ccc(O)c2[nH]1 (stereo not drawn)	> 2.86	–
> 10000	2	O=c1ccc2c(C(CO)NCCc3ccccc3Cl)ccc(O)c2[nH]1 (stereo not drawn)	> 3.66	–
> 10000	10	O=c1ccc2c(C(CO)NCCc3ccccc3O)ccc(O)c2[nH]1 (stereo not drawn)	> 3.03	Intrinsic activity [4]: 54.2%
1580	39.8	O=c1ccc2c(C(CO)NCCc3ccc(Cl)cc3)ccc(O)c2[nH]1 (stereo not drawn)	1.6	–
832	1.58	O=c1ccc2c(C(CO)NCCc3ccccc3)ccc(O)c2[nH]1 (stereo not drawn)	2.72	EC50 [3]: > 10000 nM; Intrinsic activity (Smooth muscle of trachea [5]): 100%; Emax (Smooth muscle of trachea [6]): 255%; pD2 (Smooth muscle of trachea [7]): 7.81; Intrinsic activity [4]: 57.4%
